Source: ChEMBL document CHEMBL3507680, “University of Dundee, Gates Library screen for HepG2 cell viability”

experiment: Human HepG2 cell viability assay in 384 well format; format: toxicity, cell-based; design: dose 125 nL, time 70.5 hour; cytotoxicity at 70.5 h: concentration not given beside the values; settings: HepG2 cells, read-out: Inhibition

| SMILES | cytotoxicity at 70.5 h [%] |
| --- | --- |
| CCS(=O)(=O)CCNC(=O)NC(C)c1ccc(C)s1 (stereo not given) | -8.94 |
| CSCC(C)(O)CNS(=O)(=O)c1cccc(C)c1 (stereo not given) | 6.12 |
| CCn1nccc1CNC(=O)C1CC1 | -10.1 |
| Cn1ccc(C(=O)N2CCOC(c3ccc(C(N)=O)cn3)C2)n1 (stereo not given) | 0.762 |
| Cc1cnn(CCNCC(O)COc2ccc(C#N)cc2)c1 (stereo not given) | -5.86 |
| O=C(C1CCOC1)N1C[C@H]2CN(Cc3ccncc3)C(=O)[C@H]2C1 (stereo not given in full) | -9.99 |
| Cc1nc[nH]c1-c1nccn1CCN1CCCOC1=O | -5.03 |
| CC(C)OCCCNC(=O)CN1CCC(N2CCN(C)C2=O)CC1 | -18.5 |
| COC(=O)c1ccc(C(=O)NCc2ccco2)nc1 | -8.73 |
| Clc1ccc2cccnc2c1CNC1CCc2ncnn2C1 (stereo not given) | -5.27 |
| CN1CCN([C@@H]2CCN(CC3CCOC3)[C@H]2Cc2cnn(C)c2)CC1 (stereo not given in full) | -13 |
| Cc1cc(NC(=O)C(C#N)Cc2cnn(C)c2C)no1 (stereo not given) | -13.8 |
| O=C(C1CC1)N1CC[C@@H]2[C@H](CC1)N(Cc1cccnc1)CCS2(=O)=O | -2.85 |
| N#Cc1ccccc1NC(=O)c1ccc2c(c1)OCO2 | -0.874 |
| Cc1ccccc1OCCC(=O)N(C)Cc1c(C)noc1C | -11.1 |
| Cc1cccc(C(=O)NC(C(=O)NCc2ccc(O)nc2)C(C)C)c1 (stereo not given) | -10.8 |
| CCSc1cncc(NCc2ccc(N3CCNC(=O)C3)cc2)n1 | 3.68 |
| N#Cc1ccc(CN2CCc3sccc3C2)c(F)c1 | -1.03 |
| COCCN(C(=O)c1cc(-c2ccc(C)s2)[nH]n1)C1CC1 | -3.98 |
| O=C(C1CC(=O)N(c2n[nH]c3cc(Br)ccc23)C1)N1CCSCC1 (stereo not given) | -9.09 |
| Cc1nc(C)n(CCC(=O)NCC2CCCOC2)n1 (stereo not given) | -0.994 |
| COc1ccc(C(C)NCCc2ccc(NC(C)=O)cc2)cc1F (stereo not given) | -4.18 |
| CC(=O)N(Cc1ncc(C)o1)C1CCN(Cc2ccccc2F)C1 (stereo not given) | -2.68 |

| SMILES | cytotoxicity at 70.5 h [%] |
| --- | --- |
| Cc1cc(C(=O)N2CCCCC2c2nc3cc(F)ccc3[nH]2)no1 (stereo not given) | 27.9 |
| Nc1cc(-c2c[nH]nc2C2CCCCN2C(=O)C2CCCC2)ccn1 (stereo not given) | -7.49 |
| Cc1ccc(C)c(C(C)NC(=O)N2CCC(n3cncn3)CC2)c1 (stereo not given) | -3.74 |
| COc1c(CNCc2cccnc2N2CCCCC2)c(C)nn1C | 2.37 |
| Fc1ccc(N2CCCN(Cc3ccc(-c4cc[nH]n4)o3)CC2)cc1 | -0.367 |
| OC(CNCc1ccccc1C(F)(F)F)c1ccccc1 (stereo not given) | -5.57 |
| Cc1ccc(C(=O)N2C[C@H]3CC[C@@H]2CN(S(=O)(=O)N(C)C)C3)c(O)c1 | 14.2 |
| COc1cccc2c1CCC2NC(=O)NCc1csc(N(C)C)n1 (stereo not given) | 9.68 |
| Cc1noc(C)c1CN1Cc2ccnn2CC(C(=O)NCC2CC2)C1 (stereo not given) | -6.51 |
| CN1CCN(C2CCN(CCOc3ccc(Cl)cc3)CC2)C1=O | -6.64 |
| c1coc(CN2C[C@@H]3CN(Cc4ccoc4)CCO[C@@H]3C2)c1 | -1.5 |
| c1csc(-c2nc(CN3CCCCC3Cn3cncn3)cs2)c1 (stereo not given) | -14.9 |
| CNC(=O)C1CN(C)CCN(C(=O)CCn2nnc3ccccc32)C1 (stereo not given) | 0.266 |
| CO[C@H]1CN(C(=O)c2cc3ccccc3[nH]2)CC[C@H]1N | 18.2 |
| Cc1cnn(CCNCc2ccccc2OCc2cccnc2)c1 | -3.61 |
| O=C(c1ccncc1)N1CCCC1C1CCN(Cc2ccccc2)CC1 (stereo not given) | 0.737 |
| COc1ccc(N2Cc3n[nH]c(=O)n3C2=O)cc1 | -3.14 |
| Cn1cc(C(=O)NC[C@H]2OC[C@@H]3CCN(C4CCOCC4)C[C@@H]32)cn1 | -3.43 |
| COCCO[C@H]1CCN(C(=O)c2ccc[nH]2)[C@H]1Cc1ccncc1 | -3.06 |
| CCc1nc(C2CCCN2CC(=O)N2CCc3ccccc32)no1 (stereo not given) | -5.32 |
| CCCN1CCCC2(CCN(S(=O)(=O)c3cccnc3)C2)C1=O (stereo not given) | 2.74 |
| C1CC(CO[C@@H]2CC[C@H]3[C@H]2OCCN3CC2CCOCC2)CCO1 | -81.4 |
